Source: the supplement of paper PMC11061612

Legend:
KP-N-YN (Neuroblastoma) = assay: combination Emax (second highest fraction inhibited in the dose matrix, 72 h); higher = more inhibition; extreme values may be limits of the assay
Outline: (§1)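 Bliss excess equals the observed combination effect minus the expected value EA + EB − EA·EB, where EA and EB are the effects of each agent alone. Combination Emax is the second-highest inhibition within the matrix. Inhibition was scaled from CellTiter-Glo 2.0 luminescence, with 0 set by vehicle wells and 1 by blank wells, after 72 hours of two-drug dosing of cells plated in 1536-well plates.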

[1] = system: NCI-H841 (Small Cell Lung Carcinoma); assay: as above
Outline: as §1

MKN1 (Gastric Carcinoma) [2] = assay: as above
Outline: as §1

[3] = system: Jurkat (T-Lymphoblastic Leukemia); assay: Bliss excess, mean over the matrix (fraction); higher = more synergy
Outline: as §1

[4] = system: DU-4475 (Breast Carcinoma); assay: as above
Outline: as §1

[5] = system: CAL-27 (Oral Cavity Carcinoma); assay: as above
Outline: as §1

[6] = system: NCI-H841 (Small Cell Lung Carcinoma); assay: as above
Outline: as §1

[7] = system: A253 (Head and Neck Carcinoma); assay: as above
Outline: as §1

MKN1 (Gastric Carcinoma) [8] = assay: as above
Outline: as §1

[9] = system: LS-411N (Colorectal Carcinoma); assay: as above
Outline: as §1

[10] = system: HCC1428 (Breast Carcinoma); assay: as above
Outline: as §1

[11] = system: GA-10 (Burkitt's Lymphoma); assay: as above
Outline: as §1

[12] = system: JVM-2 (B-Cell Non-Hodgkin's Lymphoma); assay: as above
Outline: as §1

[13] = system: NCI-H2228 (Lung Adenocarcinoma); assay: as above
Outline: as §1

EW-16 (Ewing's Sarcoma) = assay: as above
Outline: as §1

[14] = system: HT55 (Colorectal Carcinoma); assay: as above
Outline: as §1

| SMILES | combination Emax (KP-N-YN (Neuroblastoma)) | combination Emax [1] | combination Emax (MKN1 (Gastric Carcinoma) [2]) | Bliss excess [3] | Bliss excess [4] | Bliss excess [5] | Bliss excess [6] | Bliss excess [7] | Bliss excess (MKN1 (Gastric Carcinoma) [8]) | Bliss excess [9] | Bliss excess [10] | Bliss excess [11] | Bliss excess [12] | Bliss excess [13] | Bliss excess (EW-16 (Ewing's Sarcoma)) | Bliss excess [14] |
| --- | --- | --- | --- | --- | --- | --- | --- | --- | --- | --- | --- | --- | --- | --- | --- | --- |
| COc1cc2ncnc(Nc3ccc(F)c(Cl)c3)c2cc1OCCCN1CCOCC1 [Gefitinib] + CC(C)n1c(=O)n(C)c2cnc3cc(F)c(-c4ccc(OCCCN5CCCCC5)nc4)cc3c21 [AZD1390] (first compound max 10 µM, 7x7, partner max 0.3 µM) | 0.318 | 0.176 | 0.339 | -0.0756 | -0.0427 | -0.0668 | -0.0837 | -0.0551 | -0.0669 | -0.0463 | -0.0393 | -0.032 | -0.0645 | -0.0704 | -0.0566 | -0.0393 |
| Cc1nc(Nc2ncc(C(=O)Nc3c(C)cccc3Cl)s2)cc(N2CCN(CCO)CC2)n1 [Dasatinib] + CC(=O)Nc1cccc(-n2c(=O)n(C3CC3)c(=O)c3c(Nc4ccc(I)cc4F)n(C)c(=O)c(C)c32)c1 [Trametinib] (first compound max 2 µM, 7x7, partner max 1 µM) | 0.361 | 0.199 | 0.656 | -0.0746 | 0.011 | -0.053 | -0.0356 | -0.189 | -0.0121 | 0.0509 | -0.0334 | 0.0228 | -0.0158 | -0.049 | -0.0358 | -0.032 |
| C[C@@H](c1ccc2nccn2c1)n1nnc2ncc(-c3cnn(C)c3)nc21 [Savolitinib] + Cc1c2c(nn1C)CSCc1cc(n(C)n1)CSc1cc(c3ccccc3c1)OCCCc1c(C(=O)O)n(C)c3c-2c(Cl)ccc13 [AZD5991] (first compound max 1 µM, 7x7, partner max 1 µM) | 0.324 | 0.266 | 0.111 | -0.103 | 0.007 | -0.0839 | -0.0178 | -0.0738 | -0.0366 | -0.0232 | -0.0039 | -0.0354 | -0.021 | -0.0577 | -0.032 | -0.0697 |
| C[C@@H](c1ccc2nccn2c1)n1nnc2ncc(-c3cnn(C)c3)nc21 [Savolitinib] + CC1(C)CCC(CN2CCN(c3ccc(C(=O)NS(=O)(=O)c4ccc(NCC5CCOCC5)c([N+](=O)[O-])c4)c(Oc4cnc5[nH]ccc5c4)c3)CC2)=C(c2ccc(Cl)cc2)C1 [Venetoclax] (first compound max 1 µM, 7x7, partner max 1 µM) | 0.569 | 0.201 | 0.0845 | -0.0723 | -0.0533 | -0.0571 | -0.0333 | -0.0524 | -0.0402 | -0.0349 | -0.0219 | -0.0485 | -0.0472 | -0.0605 | -0.0873 | -0.0562 |
